Test results as given in patent US20060069132A1, “Azolecarboxamide herbicides” (priority 2004, published 2006).

Assays:
ducksalad = assay: Test B flooded paddy test; format: in vivo, Heteranthera limosa; settings: 1000 g ai/ha, scale 0 to 100 (0 no effect, 100 complete control)
Summary of the method: (§1)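 Greenhouse test; postemergence application to plants at 1–4 leaves (2–18 cm); paddy species at 2 leaves; evaluated visually vs controls at 13–15 days; scale 0–100 (100 = complete control).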

rice = assay: Test B flooded paddy test; format: in vivo, Oryza sativa; settings: 1000 g ai/ha, scale 0 to 100 (0 no effect, 100 complete control)
Summary of the method: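 Formulated test chemicals went onto postemergence plants measuring 2 to 18 cm, at one to four leaves. For the paddy assay, species had reached two leaves. Scoring took place 13–15 days later by eye, relative to untreated plants, using 0 for no effect up to 100 for full control.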

barnyardgrass [1] = assay: Test B pre-/postemergence herbicide test; format: in vivo, Echinochloa crus-galli
Summary of the method: (§2)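 Greenhouse pot assay with simultaneous preemergence (treated seed) and postemergence (2–18 cm seedlings) applications of surfactant-containing, non-phytotoxic solvent formulations. Response scored visually 13–15 days later on a 0–100 scale, 100 meaning complete control.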

velvetleaf = assay: Test B pre-/postemergence herbicide test; format: in vivo, Abutilon theophrasti
Summary of the method: (§3)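 Plants compared with untreated controls 13–15 days post-treatment and given a visual 0–100 injury score. Applications: preemergence to seeds; postemergence at 1- to 4-leaf (2–18 cm); paddy species flooded, 2-leaf stage. Vehicle non-phytotoxic, surfactant included.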

wheat = assay: Test B postemergence herbicide test; format: in vivo, Triticum aestivum; parameters: key to Wheat plant response rating: 0 = no effect, 100 = complete control
Summary of the method: (§4)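 Scale 0–100: zero equals no visible effect, 100 complete control, judged by eye relative to controls. Timing: 13 to 15 days in greenhouse post-treatment. Growth stage at spraying: two leaves (paddy) or one to four leaves, 2–18 cm (postemergence).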

lambsquarters = assay: Test B pre-/postemergence herbicide test; format: in vivo, Chenopodium album
Summary of the method: as §3

Surinam grass = assay: Test B pre-/postemergence herbicide test; format: in vivo, Urochloa decumbens
Summary of the method: as §3

large crabgrass = assay: Test B pre-/postemergence herbicide test; format: in vivo, Digitaria sanguinalis
Summary of the method: as §3

barnyardgrass [2] = assay: Test B flooded paddy test; format: in vivo, Echinochloa crus-galli; settings: 1000 g ai/ha, scale 0 to 100 (0 no effect, 100 complete control)
Summary of the method: as §1

[3] = tested on: small flower umbrella sedge; assay: Test B flooded paddy test; format: in vivo, Cyperus difformis; settings: 1000 g ai/ha, scale 0 to 100 (0 no effect, 100 complete control)
Summary of the method: as §1

morningglory = assay: Test B pre-/postemergence herbicide test; format: in vivo, Ipomoea coccinea
Summary of the method: as §2

corn = assay: Test B pre-/postemergence herbicide test; format: in vivo, Zea mays
Summary of the method: as §3

cocklebur = assay: Test B pre-/postemergence herbicide test; format: in vivo, Xanthium strumarium
Summary of the method: as §2

pigweed = assay: Test B pre-/postemergence herbicide test; format: in vivo, Amaranthus retroflexus
Summary of the method: as §3

wild oat = assay: Test B postemergence herbicide test; format: in vivo, Avena fatua
Summary of the method: as §4

blackgrass = assay: Test B postemergence herbicide test; format: in vivo, Alopecurus myosuroides
Summary of the method: as §1

giant foxtail = assay: Test B pre-/postemergence herbicide test; format: in vivo, Setaria faberi
Summary of the method: as §3

[4] = 500 g ai/ha, visual rating 0-100, 0 no effect, 100 complete control, preemergence
[5] = Postemergence, 500 g ai/ha, visual rating after 13 to 15 days, scale 0 (no effect) to 100 (complete control)
[6] = postemergence, 125 g ai/ha, visual rating, scale 0 (no effect) to 100 (complete control)
[7] = preemergence, 125 g ai/ha, 0 to 100 scale, 0 is no effect, 100 is complete control
[8] = 125 g ai/ha, 0 is no effect, 100 is complete control, preemergence
[9] = Postemergence, 500 g ai/ha, scale 0 (no effect) to 100 (complete control)
[10] = postemergence, 125 g ai/ha, scale 0 to 100

For `COc1ccc(C(C)=NO)cc1NC(=O)c1cc(C(C)(C)C)nn1C` [Compound 104], the “Ducksalad plant response rating” value (ducksalad; visual rating, 13 to 15 days) was 60, the “Rice plant response rating” value (rice; visual rating, 13 to 15 days) was 0 and the “Plant response rating, Barnyardgrass” value (barnyardgrass [1]; [4]) was 80. The “Plant response rating, Barnyardgrass” value (barnyardgrass [1]; [5]) was 0, the “Barnyardgrass plant response rating” value (barnyardgrass [1]; [6]) was 0 and the “Plant response rating, Barnyardgrass” value (barnyardgrass [1]; [7]) was 0. For the same molecule, the “Plant response rating, Velvetleaf” value (velvetleaf; [4]) was 0, the “Plant response rating, Velvetleaf” value (velvetleaf; [5]) was 0 and the “Velvetleaf plant response rating” value (velvetleaf; [6]) was 0. For the same molecule, the “Plant response rating, Velvetleaf” value (velvetleaf; [7]) was 0, the “Plant response rating, Wheat” value (wheat; [5]) was 0 and the “Wheat plant response rating” value (wheat; [6]) was 0. For the same molecule, the “Plant response rating, Lambsquarters” value (lambsquarters; [4]) was 80, the “Plant response rating, Lambsquarters” value (lambsquarters; [5]) was 20 and the “Lambsquarters plant response rating” value (lambsquarters; [6]) was 0. The “Plant response rating, Lambsquarters” value (lambsquarters; [7]) was 60, the “Plant response rating, Surinam Grass” value (Surinam grass; [4]) was 20 and the “Plant response rating, Surinam Grass” value (Surinam grass; [5]) was 10. For the same molecule, the “Surinam Grass plant response rating” value (Surinam grass; [6]) was 0, the “Plant response rating, Surinam Grass” value (Surinam grass; [7]) was 0 and the “Plant response rating, Crabgrass, Large” value (large crabgrass; [4]) was 90. For the same molecule, the “Plant response rating, Crabgrass, Large” value (large crabgrass; [5]) was 0, the “Crabgrass, Large plant response rating” value (large crabgrass; [6]) was 0 and the “Plant response rating, Crabgrass, Large” value (large crabgrass; [7]) was 80. For the same molecule, the “Barnyardgrass plant response rating” value (barnyardgrass [2]; visual rating, 13 to 15 days) was 0, the “Sedge, Umbrella plant response rating” value ([3]; visual rating, 13 to 15 days) was 70 and the “Plant response rating, Morningglory” value (morningglory; [4]) was 20. For the same molecule, the “Plant response rating, Morningglory” value (morningglory; [5]) was 0, the “Morningglory plant response rating” value (morningglory; [6]) was 0 and the “Plant response rating, Morningglory” value (morningglory; [7]) was 0. The “Plant response rating, Corn” value (corn; [4]) was 0, the “Plant response rating, Corn” value (corn; [5]) was 0 and the “Corn plant response rating” value (corn; [6]) was 0. The “Plant response rating, Corn” value (corn; [7]) was 0, the “Plant response rating, Cocklebur” value (cocklebur; [4]) was 0 and the “Plant response rating, Cocklebur” value (cocklebur; [5]) was 0. The “Cocklebur plant response rating” value (cocklebur; [6]) was 0, the “Plant response rating, Cocklebur” value (cocklebur; [7]) was 0 and the “Plant response rating, Pigweed” value (pigweed; [4]) was 70. For the same molecule, the “Plant response rating, Pigweed” value (pigweed; [5]) was 10, the “Pigweed plant response rating” value (pigweed; [6]) was 10 and the “Plant response rating, Pigweed” value (pigweed; [7]) was 60. For the same molecule, the “Plant response rating, Oat, Wild” value (wild oat; [5]) was 0, the “Oat, Wild plant response rating” value (wild oat; [6]) was 0 and the “Plant response rating, Blackgrass” value (blackgrass; [5]) was 0. For the same molecule, the “Blackgrass plant response rating” value (blackgrass; [6]) was 0, the “Plant response rating, Foxtail, Giant” value (giant foxtail; [4]) was 20 and the “Plant response rating, Foxtail, Giant” value (giant foxtail; [5]) was 0. For the same molecule, the “Foxtail, Giant plant response rating” value (giant foxtail; [6]) was 0 and the “Plant response rating, Foxtail, Giant” value (giant foxtail; [7]) was 0.

In the case of `Cc1nn(C(C)(C)C)nc1C(=O)Nc1cncc(C(=O)N(C)C)c1` [Compound 426], the “Ducksalad plant response rating” value (ducksalad) is reported as 70, the “Rice plant response rating” value (rice) is reported as 0 and the “Plant response rating (0 to 100 scale), Barnyardgrass” value (barnyardgrass [1]; [8]) is reported as 10. The “Barnyardgrass plant response rating” value (barnyardgrass [1]; Postemergence, 125 g ai/ha, scale 0 (no effect) to 100 (complete control)) was 0, the “Barnyardgrass plant response rating” value (barnyardgrass [1]; [9]) was 20 and the “Plant response rating (0 to 100 scale), Velvetleaf” value (velvetleaf; [8]) was 10. For the same molecule, the “Velvetleaf plant response rating” value (velvetleaf; [9]) was 40, the “Velvetleaf plant response rating” value (velvetleaf; [10]) was 30 and the “Wheat plant response rating” value (wheat; 500 g ai/ha, scale 0 to 100, 0 no effect, 100 complete control, preemergence) was 10. The “Wheat plant response rating” value (wheat; [9]) was 0, the “Wheat plant response rating” value (wheat; [10]) was 0 and the “Plant response rating (0 to 100 scale), Lambsquarters” value (lambsquarters; [8]) was 40. For the same molecule, the “Lambsquarters plant response rating” value (lambsquarters; [9]) was 50, the “Lambsquarters plant response rating” value (lambsquarters; [10]) was 20 and the “Plant response rating (0 to 100 scale), Surinam Grass” value (Surinam grass; [8]) was 10. The “Surinam Grass plant response rating” value (Surinam grass; [9]) was 20, the “Surinam Grass plant response rating” value (Surinam grass; [10]) was 10 and the “Plant response rating (0 to 100 scale), Crabgrass, Large” value (large crabgrass; [8]) was 70. The “Crabgrass, Large plant response rating” value (large crabgrass; [9]) was 20, the “Crabgrass, Large plant response rating” value (large crabgrass; [10]) was 10 and the “Barnyardgrass plant response rating” value (barnyardgrass [2]) was 0. The “Sedge, Umbrella plant response rating” value [3] was 70, the “Plant response rating (0 to 100 scale), Morningglory” value (morningglory; [8]) was 0 and the “Morningglory plant response rating” value (morningglory; [9]) was 50. For the same molecule, the “Morningglory plant response rating” value (morningglory; [10]) was 20, the “Plant response rating (0 to 100 scale), Corn” value (corn; [8]) was 0 and the “Corn plant response rating” value (corn; [9]) was 10. The “Corn plant response rating” value (corn; [10]) was 10, the “Plant response rating (0 to 100 scale), Cocklebur” value (cocklebur; [8]) was 0 and the “Cocklebur plant response rating” value (cocklebur; [9]) was 20. The “Cocklebur plant response rating” value (cocklebur; [10]) was 10, the “Plant response rating (0 to 100 scale), Pigweed” value (pigweed; [8]) was 50 and the “Pigweed plant response rating” value (pigweed; [9]) was 50. The “Pigweed plant response rating” value (pigweed; [10]) was 30, the “Oat, Wild plant response rating” value (wild oat; [9]) was 0 and the “Oat, Wild plant response rating” value (wild oat; [10]) was 0. The “Blackgrass plant response rating” value (blackgrass; [9]) was 0, the “Blackgrass plant response rating” value (blackgrass; [10]) was 0 and the “Plant response rating (0 to 100 scale), Foxtail, Giant” value (giant foxtail; [8]) was 0. The “Foxtail, Giant plant response rating” value (giant foxtail; [9]) was 30 and the “Foxtail, Giant plant response rating” value (giant foxtail; [10]) was 20.
